Experimental data published in patent publication US20080069896A1, “Antitumor Composition” (Kabushiki Kaisha Sangi, priority 2004, published 2008).
Where two headings read alike, the source gives them in different places.

Key:
[1] = test system: human lung cancer cell Lu65; experiment: MTT assay, human lung cancer cell Lu65; assay type: cell-based
Method: (§1) Effect of platinum tetrachloride/hydroxyapatite (PtCl4/HAP) and hexachloroplatinate/hydroxyapatite (H2PtCl6/HAP) against human cancer cells (MTT assay)
(§2) According to “in vitro toxicity test using MTT”, which is an ordinary test method, MTT assay was performed for PtCl4/HAP (particle diameter 0.1 μm or less), and H2PtCl6/HAP (particle diameter 0.1 μm or less) by using 19 types of human cancer cells. PtCl4/HAP and H2PtCl6/HAP were used by adjusting the final dispersion concentration to 1.0% in a dispersion liquid each containing 10% platinum as a theoretical value. For comparison, MTT assay was performed for PtCl4 and CDDP. PtCl4 was dissolved at an adequate dose, and then used after serial dilution with PBS (−). For CDDP, injection liquid from Malco was used.

[2] = test system: human lung cancer cell Lu99; experiment: MTT assay, human lung cancer cell Lu99; assay type: cell-based
Method: as §1, §2

[3] = test system: fibroblasts at confluency; experiment: Microscopic observation of toxicity effect during resting stage; assay type: cell-based, rat
Description: A male mature rat was deeply anesthetized with ether, and disinfected by wiping carefully its tail with alcohol. The tail end part was cut by several centimeters, and the skin was removed from coccyx. Tendon was attached to the coccyx, and by culturing the same, fibroblasts can be recovered. Coccyx part was further cut finely with a sterilized pair of scissors, and adhered on a sterilized plastic plate with the cut surface down. After resting the plate for a while, DMEM supplemented with 10% FBS was added thereto. In approximately one week, fibroblasts germinated from the coccyx part, and proliferated in the plate. The fibroblasts collected from rat tail end were used for the following experiment.
From the result of Example 7, 2 ppm which is a value of platinum content that kills 50% of fibroblasts in CDDP during resting stage was set as a standard. Then, CDDP, PtCl4/HAP, PtCl4 and HAP dispersion liquids in an amount corresponding to 2 ppm of platinum content, were added to the fibroblasts at confluency in a medium, and cultured for 48 hours.

[4] = Lu65, platinum compound without hydroxyapatite, for comparison
[5] = Lu99, platinum compound without hydroxyapatite, for comparison

| Compound | IC50 of human lung cancer cells by MTT assay [1, 4] [ppm] | Platinum content calculated from IC50 of human lung cancer cell by MTT assay [1, 4] [ppm] | IC50 of human lung cancer cells by MTT assay [2, 5] [ppm] | Microscopic observation of cell form of cultured fibroblasts [3] | Platinum content calculated from IC50 of human lung cancer cell by MTT assay [2, 5] [ppm] | further results |
| --- | --- | --- | --- | --- | --- | --- |
| [Cl][Pt-2]([Cl])([Cl])[Cl] [H2PtCl4, tetrachloroplatinate] | 8.8 | 5.1 | 9.1 | – | – | – |
| Hydroxyapatite [HAP] | – | – | – | almost no abnormality was observed | – | – |
| [Cl][Pt-2]([Cl])([Cl])([Cl])([Cl])[Cl].[H+].[H+] [H2PtCl6, hexachloroplatinate] | – | – | – | – | – | IC50 of human lung cancer cells by MTT assay [1]: 11.1 ppm; Platinum content calculated from IC50 of human lung cancer cell by MTT assay [1]: 5.3 ppm; IC50 of human lung cancer cells by MTT assay [2]: 7.2 ppm; Platinum content calculated from IC50 of human lung cancer cell by MTT assay [2]: 3.4 ppm |
| platinum tetrachloride/hydroxyapatite [PtCl4/HAP] | – | – | – | fibroblasts did not lose their original form | – | – |
| [Cl][Pt-2]([Cl])([Cl])[Cl].[K+].[K+] [K2PtCl4, dipotassium platinum tetrachloride] | 58.2 | 27.4 | 12.1 | – | 5.7 | – |
| [Cl][Pt-2]([Cl])([Cl])[Cl].[Na+].[Na+] [Na2PtCl4, disodium platinum tetrachloride] | 8.8 | 4.5 | 9.2 | – | 4.7 | – |
